In patent US12077503B2, “Substituted cyclic amides and their use as herbicides” (FMC CORPORATION, priority 2015, dated 2024):

What was measured:
Assay type in all cases: in vivo
corn (Zea mays) [1] = test: Test A postemergence
Outline: (§1)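 Greenhouse, ~10 d after spray; visual injury vs untreated controls, 0 = no effect, 100 = complete control. Preemergence: directed soil spray over planted seeds. Postemergence: plants 2–10 cm, 1–2 leaf stage. Loam/sand blend. Compound in non-phytotoxic solvent with surfactant.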

[2] = system: pigweed (Amaranthus retroflexus); test: Test A postemergence
Outline: as §1

[3] = system: wheat (Triticum aestivum); test: Test A postemergence
Outline: as §1

[4] = system: giant foxtail (Setaria faberii); test: Test A postemergence
Outline: as §1

[5] = system: velvetleaf (Abutilon theophrasti); test: Test A postemergence
Outline: as §1

[6] = system: morningglory (Ipomoea spp.); test: Test A postemergence
Outline: as §1

[7] = system: barnyardgrass (Echinochloa crus-galli); test: Test A postemergence
Outline: as §1

[8] = system: crabgrass, large (Digitaria sanguinalis); test: Test A postemergence
Outline: as §1

corn (Zea mays) [9] = test: Test A preemergence; conditions: for Corn plant response rating (0 to 100 scale): Preemergence, 0 is no effect, 100 is complete control
Outline: as §1

[10] = system: pigweed (Amaranthus retroflexus); test: Test A preemergence; conditions: for Pigweed plant response rating (0 to 100 scale): Preemergence, 0 is no effect, 100 is complete control
[11] = system: wheat (Triticum aestivum); test: Test A preemergence; conditions: for Wheat plant response rating (0 to 100 scale): Preemergence, 0 is no effect, 100 is complete control
Outline: as §1

[12] = system: giant foxtail (Setaria faberii); test: Test A preemergence; conditions: for Foxtail, Giant plant response rating (0 to 100 scale): Preemergence, 0 is no effect, 100 is complete control
Outline: as §1

[13] = system: velvetleaf (Abutilon theophrasti); test: Test A preemergence; conditions: for Velvetleaf plant response rating (0 to 100 scale): Preemergence, 0 is no effect, 100 is complete control
Outline: as §1

[14] = system: morningglory (Ipomoea spp.); test: Test A preemergence; conditions: for Morningglory plant response rating (0 to 100 scale): Preemergence, 0 is no effect, 100 is complete control
Outline: as §1

[15] = system: barnyardgrass (Echinochloa crus-galli); test: Test A preemergence; conditions: for Barnyardgrass plant response rating (0 to 100 scale): Preemergence, 0 is no effect, 100 is complete control
Outline: as §1

[16] = system: crabgrass, large (Digitaria sanguinalis); test: Test A preemergence; conditions: for Crabgrass, Large plant response rating (0 to 100 scale): Preemergence, 0 is no effect, 100 is complete control
Outline: as §1

rice (Oryra sativa) = test: Test B flooded paddy test; conditions: Flood, 250 g ai/ha; 0 to 100 scale where 0 is no effect and 100 is complete control; 13 to 15 d
Outline: (§2)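 Flooding to 3 cm over soil accompanied treatment, which consisted of adding compound to the standing water around 2-leaf plants; depth was then maintained. Visual assessment versus controls followed at 13 to 15 d (scale 0–100, 0 meaning no effect).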

[17] = system: barnyardgrass (Echinochloa crus-galli); test: Test B flooded paddy test; conditions: Flood, 250 g ai/ha; 0 to 100 scale where 0 is no effect and 100 is complete control; 13 to 15 d
Outline: as §2

[18] = system: ducksalad (Heteranthera limosa); test: Test B flooded paddy test; conditions: Flood, 250 g ai/ha; 0 to 100 scale where 0 is no effect and 100 is complete control; 13 to 15 d
Outline: as §2

[19] = system: sedge, umbrella (small-flower umbrella sedge, Cyperus difformis); test: Test B flooded paddy test; conditions: Flood, 250 g ai/ha; 0 to 100 scale where 0 is no effect and 100 is complete control; 13 to 15 d
Outline: as §2

[20] = 1000 g ai/ha, postemergence, 0 to 100 scale, 0 no effect, 100 complete control
[21] = 500 g ai/ha, postemergence, 0 to 100 scale, 0 no effect, 100 complete control
[22] = Postemergence, 125 g ai/ha, visual injury, 0 to 100 scale (0 no effect, 100 complete control), approx. 10 d
[23] = 125 g ai/ha, preemergence, 0 to 100 scale (0 no effect, 100 complete control)

With `Nc1c(NC(=O)C2C(=O)NCC2c2ccc(F)c(F)c2)ccc(F)c1F` (racemic) [Compound 358] as the molecule, how does the “Plant response rating, Corn” value (corn (Zea mays) [1]; [20]) read?
Its value is 0.

What about the “Plant response rating, Pigweed” value [2, 20] of the same molecule?
The value was 0.

What about the “Plant response rating, Wheat” value [3, 20] of the same molecule?
Its value is 0.

And the “Plant response rating, Foxtail, Giant” value [4, 20]?
Its value is 30.

What about the “Plant response rating, Velvetleaf” value [5, 20] of the same molecule?
Its value is 0.

And the “Plant response rating, Morningglory” value [6, 20]?
Its value is 0.

And the “Plant response rating, Barnyardgrass” value [7, 20]?
The value was 0.

What about the “Plant response rating, Crabgrass, Large” value [8, 20] of the same molecule?
Its value is 40.

What about the “Corn plant response rating (0 to 100 scale)” value (corn (Zea mays) [9]; 1000 g ai/ha) of the same molecule?
The value was 0.

And the “Pigweed plant response rating (0 to 100 scale)” value ([10]; 1000 g ai/ha)?
Its value is 0.

And the “Wheat plant response rating (0 to 100 scale)” value ([11]; 1000 g ai/ha)?
Its value is 0.

What about the “Foxtail, Giant plant response rating (0 to 100 scale)” value ([12]; 1000 g ai/ha) of the same molecule?
The value was 0.

What about the “Velvetleaf plant response rating (0 to 100 scale)” value ([13]; 1000 g ai/ha) of the same molecule?
The value was 0.

And the “Morningglory plant response rating (0 to 100 scale)” value ([14]; 1000 g ai/ha)?
The value was 0.

What about the “Barnyardgrass plant response rating (0 to 100 scale)” value ([15]; 1000 g ai/ha) of the same molecule?
Its value is 0.

And the “Crabgrass, Large plant response rating (0 to 100 scale)” value ([16]; 1000 g ai/ha)?
Its value is 50.

How did the “Plant response rating, Corn” value (corn (Zea mays) [1]; [21]) turn out when `Cn1nccc1NC(=O)C1C(=O)NCC1c1ccc(F)c(F)c1` (racemic) [Compound 362] was run?
The value was 0.

What about the “Plant response rating, Corn” value (corn (Zea mays) [1]; [22]) of the same molecule?
The value was 0.

What about the “Plant response rating, Pigweed” value [2, 21] of the same molecule?
Its value is 0.

And the “Plant response rating, Pigweed” value [2, 22]?
The value was 0.

And the “Plant response rating, Wheat” value [3, 21]?
Its value is 0.

And the “Plant response rating, Wheat” value [3, 22]?
The value was 0.

And the “Plant response rating, Foxtail, Giant” value [4, 21]?
The value was 0.

What about the “Plant response rating, Foxtail, Giant” value [4, 22] of the same molecule?
Its value is 0.

And the “Plant response rating, Velvetleaf” value [5, 21]?
The value was 0.

And the “Plant response rating, Velvetleaf” value [5, 22]?
The value was 0.

And the “Plant response rating, Morningglory” value [6, 21]?
Its value is 0.

And the “Plant response rating, Morningglory” value [6, 22]?
Its value is 0.

And the “Plant response rating, Barnyardgrass” value [7, 21]?
Its value is 0.

And the “Plant response rating, Barnyardgrass” value [7, 22]?
The value was 0.

What about the “Plant response rating, Crabgrass, Large” value [8, 21] of the same molecule?
Its value is 0.

And the “Plant response rating, Crabgrass, Large” value [8, 22]?
The value was 0.

What about the “Plant response rating, Rice” value (rice (Oryra sativa)) of the same molecule?
Its value is 0.

And the “Plant response rating, Barnyardgrass” value [17]?
Its value is 0.

What about the “Plant response rating, Ducksalad” value [18] of the same molecule?
Its value is 0.

What about the “Plant response rating, Sedge, Umbrella” value [19] of the same molecule?
The value was 0.

What about the “Plant response rating, Corn” value (corn (Zea mays) [9]; [23]) of the same molecule?
The value was 0.

What about the “Corn plant response rating (0 to 100 scale)” value (corn (Zea mays) [9]; 500 g ai/ha) of the same molecule?
The value was 0.

And the “Plant response rating, Pigweed” value [10, 23]?
Its value is 0.

And the “Pigweed plant response rating (0 to 100 scale)” value ([10]; 500 g ai/ha)?
The value was 0.

What about the “Plant response rating, Wheat” value [11, 23] of the same molecule?
Its value is 0.

What about the “Wheat plant response rating (0 to 100 scale)” value ([11]; 500 g ai/ha) of the same molecule?
The value was 0.

And the “Plant response rating, Foxtail, Giant” value [12, 23]?
Its value is 0.

And the “Foxtail, Giant plant response rating (0 to 100 scale)” value ([12]; 500 g ai/ha)?
Its value is 0.

What about the “Plant response rating, Velvetleaf” value [13, 23] of the same molecule?
Its value is 0.

And the “Velvetleaf plant response rating (0 to 100 scale)” value ([13]; 500 g ai/ha)?
Its value is 0.

What about the “Plant response rating, Morningglory” value [14, 23] of the same molecule?
The value was 0.

What about the “Morningglory plant response rating (0 to 100 scale)” value ([14]; 500 g ai/ha) of the same molecule?
Its value is 0.

And the “Plant response rating, Barnyardgrass” value [15, 23]?
The value was 0.

What about the “Barnyardgrass plant response rating (0 to 100 scale)” value ([15]; 500 g ai/ha) of the same molecule?
The value was 0.

What about the “Plant response rating, Crabgrass, Large” value [16, 23] of the same molecule?
The value was 0.

And the “Crabgrass, Large plant response rating (0 to 100 scale)” value ([16]; 500 g ai/ha)?
The value was 0.

Which results are given for `N#CCN(C(=O)C1C(=O)NCC1c1ccc(F)c(F)c1)c1ccccc1[N+](=O)[O-]` (centres unmarked) [Compound 713]?
Plant response rating, Corn (corn (Zea mays) [1]; [20]): 0; Plant response rating, Pigweed [2, 20]: 0; Plant response rating, Wheat [3, 20]: 0; Plant response rating, Foxtail, Giant [4, 20]: 0; Plant response rating, Velvetleaf [5, 20]: 0; Plant response rating, Morningglory [6, 20]: 0; Plant response rating, Barnyardgrass [7, 20]: 0; Plant response rating, Crabgrass, Large [8, 20]: 0; Corn plant response rating (0 to 100 scale) (corn (Zea mays) [9]; 1000 g ai/ha): 0; Pigweed plant response rating (0 to 100 scale) ([10]; 1000 g ai/ha): 0; Wheat plant response rating (0 to 100 scale) ([11]; 1000 g ai/ha): 0; Foxtail, Giant plant response rating (0 to 100 scale) ([12]; 1000 g ai/ha): 40; Velvetleaf plant response rating (0 to 100 scale) ([13]; 1000 g ai/ha): 0; Morningglory plant response rating (0 to 100 scale) ([14]; 1000 g ai/ha): 0; Barnyardgrass plant response rating (0 to 100 scale) ([15]; 1000 g ai/ha): 0; Crabgrass, Large plant response rating (0 to 100 scale) ([16]; 1000 g ai/ha): 80
